For test [1], the system named is geonol earthy/moss odor perception. Nature of the test: Human sensory performance of test compounds with and without geonol. In kind it is in vivo. As to conditions: for % Earthy/Moss Odor: Test Compound Only. The source says: Sensory Evaluation: Five 16 oz glass jars containing either REF (geonol only), geonol only control, antagonist only, mixture of geonol and isointense antagonist, or mixture of geonol and low intensity antagonist were presented to the panelists (last four samples were randomized across panelists). The panelists were asked to familiarize themselves with the earthy/moss odor quality from the REF jar first, then rate the pleasantness, earthy/moss odor intensity and overall odor intensity of the next four samples on a 0-10 linear scale. The inter-stimulus interval between the samples was two minutes to avoid adaptation. […]
The results are shown in Tables 16 and 17, and FIGS. 3 to 5.

In test [2] the target is T1, OR51E1 olfactory receptor (Homo sapiens, UniProt Q8TCB6).
T1 construct: expressed in transfected cells
T1 sequence (Q8TCB6 1-318): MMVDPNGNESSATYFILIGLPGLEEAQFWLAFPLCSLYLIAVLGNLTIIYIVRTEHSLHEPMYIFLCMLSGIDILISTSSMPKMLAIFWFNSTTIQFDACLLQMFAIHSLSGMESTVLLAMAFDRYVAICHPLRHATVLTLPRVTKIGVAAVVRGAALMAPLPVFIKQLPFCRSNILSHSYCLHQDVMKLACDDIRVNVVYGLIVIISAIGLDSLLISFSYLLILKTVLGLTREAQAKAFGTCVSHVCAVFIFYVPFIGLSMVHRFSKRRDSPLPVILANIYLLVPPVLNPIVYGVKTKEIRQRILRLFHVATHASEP
Nature of the test: Butyric acid olfactory receptor antagonist cell-based dose-response vs butyric acid EC80. As to conditions: butyric acid at EC80; Table 5.

The test system of test [3] is OR2W1 or the OR1A1 olfactory receptor. Nature of the test: 1-octen-3-ol olfactory receptor antagonist cell-based dose-response vs 1-octen-3-ol EC80. To be noted: for IC50: 1-octen-3-ol at EC80; for % Inhibition: maximum inhibition normalized to baseline agonist activity.
Text: Each cell line was screened with a volatile compound library for their inhibitory properties and potential 1-octen-3-ol smell inhibition.
Single concentration monitoring of the 1-octen-3-ol induced cell activity in the presence or absence of a test compound allowed for the identification of compounds with a putative suppression or inhibitory effect.
Test [4] has as its system geonol receptors Olfr339, Olfr1487, Olfr1A1, OR11A1, Olfr96. Description: Antagonists of geonol receptors (Example 11). In kind it is cell-based, mouse and human. The arrangement: Inhibition(%): concentration or dose not given beside the values. To be noted: Table 18.
In test [5] the test system is 1-octen-3-ol mushroom/earthy/fungal odor perception. Description: Human sensory performance of test compounds with and without 1-octen-3-ol. It is filed as in vivo. As to conditions: for % Mushroom/Earthy/Fungal Odor: Test Compound Only.
Test [6] deals with OR11A1, or the OR2M3 olfactory receptor. Description: Geonol olfactory receptor antagonist cell-based screening, inhibitory dose-response vs geonol EC80. The arrangement: species or system human. To be noted: geonol at EC80.
Test [7] concerns 1-octen-3-ol receptors OR2W1, Olfr93, Olfr120, Olfr398. Description: Antagonists of 1-octen-3-ol receptors (Example 11). In kind it is cell-based, mouse and human. The arrangement: Inhibition(%): concentration or dose not given beside the values. As to conditions: Table 19.
Where [8] appears, read: Low Dilution Test Compound + Geonol (0.1%).
[9] abbreviates: Medium Dilution Test Compound + Geonol (0.1%).
[10] abbreviates: Low Dilution Test Compound + 1-octen-3-ol (0.15%).
Setting [11] is: Medium Dilution Test Compound + 1-octen-3-ol (0.15%).

Read-outs that look alike come from different tables or passages of the source.

Take `CCC(=CC[C@@H]1CC=C(C)C1(C)C)CO`: the “% Earthy/Moss Odor Remaining” value is given as 85.20% in test [1] (setting [8]) and 64.30% in test [1] (setting [9]). The “% Earthy/Moss Odor” value in test [1] was 34.90%.
On to `C=C1CC[C@H]2O[C@]2(C)CC[C@@H]2[C@@H]1CC2(C)C`, for which, in test [2], the IC50 (usually the concentration needed to halve the response being measured) amounted to 97 µM. In test [3], the IC50 was determined as 25.1 µM and the % Inhibition (in general, the change of the read-out against control, counted positive when it falls) is reported as 123.63%.
As to `CC1=C[C@@H](C)[C@@H](C=O)CC1`, the figures for the “% Earthy/Moss Odor Remaining” value in test [1] (setting [8]) and in test [1] (setting [9]) were 80.60% and 71.50%, respectively. The “% Earthy/Moss Odor” value in test [1] is 48.10%.
Take `CC(=O)O[C@H]1CCCC[C@@H]1C(C)(C)C`: in test [4], half-maximal inhibition (IC50) was put at 164 µM and the “Inhibition(%)” value turned out to be 56%. In addition, in test [1], the “% Earthy/Moss Odor” value is listed as 15.30%.
As to “1-(4,8-dimethyl-12-methylidenecyclododeca-4,8-dien-1-yl)ethanone; 1-(2,6,10-trimethylcyclododeca-1,5,9-trien-1-yl)ethanone; 1-(2,6,10-trimethylcyclododeca-2,5,9-trien-1-yl)ethanone”, the “% Mushroom/Earthy/Fungal Odor Remaining” value in test [5] (setting [10]) amounted to 88.90%; in test [5] (setting [11]) it was 68.50%. Also, the “% Mushroom/Earthy/Fungal Odor” value in test [5] was 26.70%. In addition, the IC50 is 101 µM in test [2], 82.4 µM in test [3] and 301 µM in test [6] (read-out: IC50). Moreover, the “% Inhibition” value in test [3] is on record as 113.23%; in test [6], 20%.
Consider “3-acetyloxynonyl acetate; (3-pentyloxan-4-yl) acetate”, for which, in test [4], the IC50 amounted to 295 µM and the “Inhibition(%)” value came to 20%. In test [1] (setting [8]), the “% Earthy/Moss Odor Remaining” value was 81.10%. Besides, the “% Earthy/Moss Odor Remaining” value in test [1] (setting [9]) is given as 62.50%. In test [1], the “% Earthy/Moss Odor” value is reported as 26.20%.
On to `CC1CCCCCCCCCCCCC(=O)C1` (racemic) [(+−)-3-methylcyclopentadecanone], for which the “% Mushroom/Earthy/Fungal Odor” value in test [5] worked out at 11.60%. Further, the IC50 in test [2] amounted to 159 µM; in test [3], 44 µM. In addition, in test [3], the “% Inhibition” value was determined as 113.50%.
For the molecule `CC1(C)C2C[C@H]3CCC(=O)C=C3[C@@H]1C2` (single isomer, unassigned; (+)), in test [3], 194 µM corresponded to half-maximal inhibition (IC50) and the “% Inhibition” value came out at 128.51%.
Turning to `O=C1CCCCCCCCCCC(=O)OCCO1` [1,4-dioxacyclohexadecane-5,16-dione], the “% Mushroom/Earthy/Fungal Odor” value in test [5] is reported as 14.90%. Moreover, in test [4], the midpoint of inhibition, the IC50, lay at 136 µM and the “Inhibition(%)” value is given as 33%. Moreover, in test [3], the IC50 came out at 24.2 µM and the “% Inhibition” value stood at 116.54%.
Consider `CC1C(=O)c2ccccc2C1(C)C` (stereo not drawn) [2,3,3-trimethyl-2H-inden-1-one], for which, in test [3], inhibition was half-maximal at 75.6 µM (IC50) and the “% Inhibition” value worked out at 128.39%.
As for `CC1C(=O)c2ccccc2C1(C)C` (stereo not drawn) [2,3,3-trimethyl-2~{H}-inden-1-one], the “% Mushroom/Earthy/Fungal Odor Remaining” value came out at 94.40% in test [5] (setting [10]) and 57.90% in test [5] (setting [11]). Further, the “% Mushroom/Earthy/Fungal Odor” value in test [5] is 16.50%.
As for `CC(=CC=O)CCC(C)=C(C)C` [3,6,7-trimethylocta-2,6-dienal], the “% Mushroom/Earthy/Fungal Odor” value in test [5] was found to be 16.40%. Moreover, the “% Earthy/Moss Odor” value in test [1] turned out to be 26.90%.
With `CC(C)(C)c1ccc(CCC=O)cc1` [3-(4-tert-butylphenyl)propanal], in test [6], the “% Inhibition” value worked out at 50%. Besides, the IC50 in test [6] (read-out: IC50) was 316 µM.
Turning to `CC(=O)CCC1=C(C)CCCC1(C)C` [4-(2,6,6-trimethylcyclohexen-1-yl)butan-2-one], in test [4], inhibition was half-maximal at 118 µM (IC50) and the “Inhibition(%)” value came to 36%. In addition, in test [7], half-maximal inhibition (IC50) required 149 µM and the “Inhibition(%)” value worked out at 40%. For the same molecule, the “% Earthy/Moss Odor” value in test [1] amounted to 30.30%.
As for `CC(C)=CCCC(C)=CCCc1ccncc1` [4-(4,8-dimethylnona-3,7-dienyl)pyridine], the “% Mushroom/Earthy/Fungal Odor” value in test [5] is listed as 44.40%. Besides, in test [3], it took 134 µM to reach half-maximal inhibition (IC50) and the “% Inhibition” value turned out to be 111.87%.
As to `CC(=O)OC(C)(C)Cc1ccccc1` [(2-methyl-1-phenylpropan-2-yl) acetate], in test [4], half-maximal inhibition (IC50) required 386 µM and the “Inhibition(%)” value stood at 54%. Further, the “% Earthy/Moss Odor” value in test [1] worked out at 34.00%.
For the molecule `C[C@@H](CC=O)CCCC(C)(C)O` [(3~{R})-7-hydroxy-3,7-dimethyloctanal], the “% Mushroom/Earthy/Fungal Odor Remaining” value in test [5] (setting [10]) was 70.00%; in test [5] (setting [11]) it was 56.50%. In addition, in test [5], the “% Mushroom/Earthy/Fungal Odor” value is listed as 20.70%. In addition, the “% Earthy/Moss Odor Remaining” value in test [1] (setting [8]) is given as 68.20%; in test [1] (setting [9]), 57.20%. The “% Earthy/Moss Odor” value in test [1] turned out to be 30.30%.
For the molecule `CC(=O)OC(C)CC(C)(C)c1ccccc1` (stereo not drawn) [(4-methyl-4-phenylpentan-2-yl) acetate], the “% Mushroom/Earthy/Fungal Odor” value in test [5] is 52.70%. The IC50 in test [2] turned out to be 59.2 µM; in test [4], 627 µM; in test [7], 62 µM; in test [3], 61.7 µM. Also, the “Inhibition(%)” value was 84% in test [4] and 119% in test [7]. Besides, the “% Inhibition” value in test [3] is 98.90%.
On to `C=C(C)[C@@H]1CCC2=CC(=O)C[C@@H](C)[C@]2(C)C1` [(4R,4aS,6R)-4,4a-dimethyl-6-prop-1-en-2-yl-3,4,5,6,7,8-hexahydronaphthalen-2-one], for which, in test [7], half-maximal inhibition (IC50) was put at 36.5 µM and the “Inhibition(%)” value stood at 39%. Besides, the “% Earthy/Moss Odor” value in test [1] was found to be 70.60%. Besides, in test [6], the “% Inhibition” value came to 50%. For the same molecule, the IC50 in test [6] (read-out: IC50) amounted to 486 µM.
As to `O=C1CCCCCCC/C=C/CCCCCCC1` [(9<I>E</I>)-cycloheptadec-9-en-1-one], in test [3], the IC50 came out at 210 µM and the “% Inhibition” value is recorded as 97.22%.
For the molecule `CC(C)=CCC[C@@H](C)CC#N` [(−)-(R)-3,7-dimethyl-6-octenenitrile], the “% Inhibition” value in test [6] was 10%. Besides, the IC50 in test [6] (read-out: IC50) came out at 300 µM.
In the case of `O=C1CCCCCCCCCCC1` [Clyclododecanone, cyclododecanone], in test [3], the IC50 is 8.79 µM and the “% Inhibition” value is on record as 118.47%.
For the molecule `Cc1ccc(C(C)C)cc1O` [Compound 2-methyl-5-propan-2-ylphenol, 2-methyl-5-propan-2-ylphenol], the “% Earthy/Moss Odor” value in test [1] turned out to be 40.10%. This molecule registered an IC50 in test [6] of 215 µM.
Consider `CC(CCO)CCc1ccccc1` (stereo not drawn) [Compound 3-methyl-5-phenylpentan-1-ol, 3-methyl-5-phenylpentan-1-ol], for which, in test [1], the “% Earthy/Moss Odor” value was 11.30%.
`O=C1CCC=CCCCCCCCCCC1` [Cyclopentadec-4-en-1-one]: in test [3], 156 µM corresponded to half-maximal inhibition (IC50) and the “% Inhibition” value was 90.98%.
For `O=C1CCCCCCCCCCCCCCO1` [OXACYCLOHEXADECAN-2-ONE], in that order: 32.1 µM and 111.31%.
For `CCCCCO` [Pentanol, 1-, pentanol], in test [3], the IC50 stood at 28.3 µM and the “% Inhibition” value is 94.31%.
In the case of `CCC=CCC=CC=CC(=O)OCC` [ethyl deca-2,4,7-trienoate], in test [5], the “% Mushroom/Earthy/Fungal Odor” value is 56.50%. The “% Earthy/Moss Odor” value in test [1] is given as 62.20%.
Consider `CCCCCC/C=C/C=O` [nonylenic aldehyde], for which the “% Inhibition” value in test [6] was 30%. In addition, the IC50 in test [6] (read-out: IC50) was 151 µM.
`O=C1CCCCCCCCCCCCCCO1` [oxacyclohexadecan-2-one]: in test [5], the “% Mushroom/Earthy/Fungal Odor” value worked out at 13.90%. In test [4], the IC50 turned out to be 291 µM and the “Inhibition(%)” value worked out at 34%. The “% Earthy/Moss Odor” value in test [1] came out at 18.70%.
As for `OCCc1ccccc1` [phenylethylol, 2-PHENYLETHANOL], the “% Earthy/Moss Odor” value in test [1] amounted to 47.50%.

Values taken from patent publication US20230233425A1, “USE OF VOLATILE COMPOSITIONS TO LIMIT OR ELIMINATE THE PERCEPTION OF MALODOR” (Firmenich SA, priority 2017, published 2023).
